Legend:
[1] = target: UGT2B15 (Homo sapiens, UniProt P54855); experiment: Substrate glucuronidation by recombinant UGT2B15; details: UGT2B15 Supersomes 250 μg/ml; 7-HFC 50 μM
[2] = tested on: human liver microsomes; experiment: Glucuronidation of UGT substrates by human liver microsomes; details: for 7-HFC glucuronidation rate: 100 μg/ml protein, 1 mM UDPGA, 15 min
[3] = as above; details: human, human liver microsomes, pH 7.5
[4] = target: T1, UGT1A9 (Homo sapiens, UniProt O60656); experiment: Substrate glucuronidation by recombinant UGT1A9
T1 sequence (O60656 26-530): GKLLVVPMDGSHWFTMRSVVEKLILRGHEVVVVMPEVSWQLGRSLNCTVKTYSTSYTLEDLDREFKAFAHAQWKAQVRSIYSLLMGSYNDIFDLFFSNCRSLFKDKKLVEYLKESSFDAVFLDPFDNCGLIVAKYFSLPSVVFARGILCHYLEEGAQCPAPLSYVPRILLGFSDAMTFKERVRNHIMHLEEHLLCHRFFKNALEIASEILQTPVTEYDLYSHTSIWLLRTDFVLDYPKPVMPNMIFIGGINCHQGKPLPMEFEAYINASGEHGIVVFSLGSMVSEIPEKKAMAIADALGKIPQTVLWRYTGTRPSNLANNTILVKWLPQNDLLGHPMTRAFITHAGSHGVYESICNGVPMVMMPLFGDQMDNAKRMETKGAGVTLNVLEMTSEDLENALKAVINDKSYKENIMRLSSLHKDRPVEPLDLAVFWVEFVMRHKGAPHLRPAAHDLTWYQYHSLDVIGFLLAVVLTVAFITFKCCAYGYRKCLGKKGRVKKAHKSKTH

[5] = target: T2, UGT1A3 (Homo sapiens, UniProt P35503); experiment: Substrate glucuronidation by recombinant UGT1A3; details: for 7-HFC glucuronidation rate: 7-HFC 50 μM
T2 sequence (P35503 29-534): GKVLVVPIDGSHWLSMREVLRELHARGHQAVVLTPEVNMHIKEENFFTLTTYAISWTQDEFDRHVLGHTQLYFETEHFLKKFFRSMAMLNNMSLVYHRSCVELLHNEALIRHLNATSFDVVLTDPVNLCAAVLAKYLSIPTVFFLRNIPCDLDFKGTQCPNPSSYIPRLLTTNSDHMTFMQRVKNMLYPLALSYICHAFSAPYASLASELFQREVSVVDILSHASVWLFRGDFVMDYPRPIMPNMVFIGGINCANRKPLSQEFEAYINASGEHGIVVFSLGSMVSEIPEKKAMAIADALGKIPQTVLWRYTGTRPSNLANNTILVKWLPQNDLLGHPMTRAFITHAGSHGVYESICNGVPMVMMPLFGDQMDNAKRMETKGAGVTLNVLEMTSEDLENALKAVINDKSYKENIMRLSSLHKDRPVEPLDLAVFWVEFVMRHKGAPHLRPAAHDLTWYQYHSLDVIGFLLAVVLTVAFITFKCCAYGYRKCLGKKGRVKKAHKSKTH

[6] = target: T3, UGT1A8 (Homo sapiens, UniProt Q9HAW9)
T3 sequence (Q9HAW9 26-530): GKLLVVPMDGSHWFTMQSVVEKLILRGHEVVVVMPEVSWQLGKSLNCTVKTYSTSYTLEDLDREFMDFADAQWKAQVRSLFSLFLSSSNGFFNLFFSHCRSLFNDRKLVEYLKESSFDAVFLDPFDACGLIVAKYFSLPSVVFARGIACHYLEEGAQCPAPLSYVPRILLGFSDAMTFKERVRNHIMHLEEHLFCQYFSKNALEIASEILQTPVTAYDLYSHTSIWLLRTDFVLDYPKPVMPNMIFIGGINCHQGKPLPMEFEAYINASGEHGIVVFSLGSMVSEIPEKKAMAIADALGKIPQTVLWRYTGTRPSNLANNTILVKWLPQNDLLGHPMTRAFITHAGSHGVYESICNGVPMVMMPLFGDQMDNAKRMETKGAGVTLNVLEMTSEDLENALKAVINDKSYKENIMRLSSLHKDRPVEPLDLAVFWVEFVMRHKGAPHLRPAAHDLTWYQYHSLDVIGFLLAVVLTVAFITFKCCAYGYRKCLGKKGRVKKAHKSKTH

Chain of UGT2B15 (P54855 24-530): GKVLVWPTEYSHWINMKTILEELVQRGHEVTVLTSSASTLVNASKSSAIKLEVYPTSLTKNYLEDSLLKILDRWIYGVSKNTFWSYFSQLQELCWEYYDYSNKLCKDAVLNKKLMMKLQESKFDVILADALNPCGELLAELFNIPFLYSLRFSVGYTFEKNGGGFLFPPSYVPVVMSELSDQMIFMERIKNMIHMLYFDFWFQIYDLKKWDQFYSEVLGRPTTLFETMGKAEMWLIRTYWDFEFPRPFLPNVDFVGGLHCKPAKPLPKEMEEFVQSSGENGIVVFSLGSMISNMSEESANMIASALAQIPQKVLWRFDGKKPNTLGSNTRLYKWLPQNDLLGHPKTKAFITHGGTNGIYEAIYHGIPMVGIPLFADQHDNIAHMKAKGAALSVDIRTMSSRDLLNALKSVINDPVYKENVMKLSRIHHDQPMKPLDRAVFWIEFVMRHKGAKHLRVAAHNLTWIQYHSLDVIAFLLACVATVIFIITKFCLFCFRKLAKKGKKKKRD

| 7-HFC glucuronidation rate [1] | 7-HFC glucuronidation rate in human liver microsomes, times higher than UGT1A6 Supersomes [2] | 7-HFC metabolism rate ([2]; human liver microsomes (table footnote)) | 7-HFC glucuronidation rate ([2]; liver microsome lot 032101) | 7-HFC glucuronidation rate ([2]; liver microsome lot 062101) | 7-HFC glucuronidation rate ([2]; liver microsome lot 062900) | Km at 15 min [3] | 7-HFC glucuronidation rate as % of the rate for UGT1A6 ([4]; UGT1A9) | 7-HFC glucuronidation rate ([4]; UGT1A9 Supersomes 250 μg/ml, 7-HFC 50 μM) | 7-HFC glucuronidation rate in Panvera Bacculosomes as % of Gentest Supersomes ([5]; UGT1A3) | 7-HFC glucuronidation rate ([5]; UGT1A3 Bacculosomes 250 μg/ml) | 7-HFC glucuronidation rate ([5]; UGT1A3 Supersomes 250 μg/ml) | labetalol metabolism, in words [6] | SMILES | mean apparent Vmax for 7-HFC glucuronidation ([2]; microsome lot 062900, substrate 20-500 μM) |
| --- | --- | --- | --- | --- | --- | --- | --- | --- | --- | --- | --- | --- | --- | --- |
| 976 ± 17 pmol/min/mg protein | 6 times | 26,405 ± 272 pmol/min/mg | 29,907±562 pmol/min/mg | 33,039±493 pmol/min/mg | 26,405±272 pmol/min/mg | 85 µM | 81% | 3976 ± 41 pmol/min/mg protein | 2% | 17 ± 1 pmol/min/mg protein | 952 ± 82 pmol/min/mg protein |  | O=c1cc(C(F)(F)F)c2ccc(O)cc2o1 [7-HFC, 7-hydroxy-4-(trifluoromethyl)coumarin] | 60 nmol/min/mg microsomal protein |
|  |  |  |  |  |  |  |  |  |  |  |  | No detectable metabolism was observed | CC(CCc1ccccc1)NCC(O)c1ccc(O)c(C(N)=O)c1 (centres unmarked) [Labetalol, labetalol] |  |

From patent US20030215462A1, “Use of UGT inhibitors to increase bioavailability” (priority 2001, published 2003)
